Patent US10584115B2, “Substituted pyridine and pyrazine BMI-1 inhibitors” (PTC Therapeutics, Inc., priority 2013, dated 2020)
Where two headings read alike, the source gives them in different places.

System: Bmi-1 protein
Assay: Sandwich ELISA Assay (Bmi-1 protein level in HT-1080 cells after compound treatment)
Type: cell-based
Method: Cell Seeding and Compound Treatment (Day 1):
HT-1080 cells were seeded at 8000 cells/well (50 μL) in 96-well tissue culture plates. After the cells became adherent (3-4 hours), 2× diluted stocks of test compounds in 50 μL DMEM containing 1% DMSO (final DMSO concentration was 0.5%) were added and the plates were incubated at 37° C. under 5% CO2 for 40-48 hours.
ELISA Plate First Antibody Preparation (Day 2):
The First Antibody (Millipore Mouse, monoclonal to mouse Bmi-1, clone F6, catalog #05-637) diluted to […] in PBS was added (100 μL) to each well of a Nunc MaxiSorp 96-well ELISA plate. The plate was covered with a plate seal and allowed to stand overnight.
Cell Lysate Preparation (Day 3):
Fresh Lysis buffer (1×) was prepared on the day of the assay as follows: 1 mM EDTA, 150 mM NaCl, 0.5% Triton-X 100, 10 mM NaF, 20 mM B-Glycerophosphate, 1 mM DTT (in PBS, pH 7.2-7.4) and HALT protease inhibitor cocktail (lx) (Pierce #78410).
A standard curve was prepared at the following Bmi-1 concentrations: 8000, 4000, 2000, 1000, 500, 250, 125 and 0 pg/mL. The Bmi-1 Recombinant Protein Standard (Novus Biologicals PCGF4 Recombinant Protein (P01), catalog # H00000648-P01) used to prepare the standard curve was stored at −80° C. On first thaw, the Recombinant Protein Standard was diluted to 10 μg/L in Blocking Buffer (1% BSA in PBS; BSA: Fisher Scientific Catalog #1600-100). Aliquots were taken and refrozen at −80° C. The aliquots may be kept at 4° C. and reused after first thaw, but only within 1-2 weeks. The Recombinant Protein Standard contains a GST-fusion tag that appears at approximately 70 Kda on Western Blot.
The prepared ELISA plate was washed 3× with Wash Buffer (0.05% Tween-20 in PBS). The final wash was removed from the plate and the plate was blotted dry. Blocking Buffer (300 μL) (1% BSA in PBS) was added to each well. The plate was covered with a plate seal and incubated at room temperature for 1 hour. The blocked plate was washed 3× with Wash Buffer, then the final wash was removed and the plate was blotted dry. The previously prepared samples and standards were added ([…]) and the plate was covered with a plate seal and incubated at 4° C. overnight.
The prepared ELISA plate was removed from incubation and allowed to stand at room temperature for 30 minutes, then washed and blotted dry. The Second Antibody (Cell Signaling Rabbit anti-Bmi-1, Cat #2830) diluted to 1:600 in Blocking Buffer was added (100 μL) to each well, except as needed for background control wells. The plate was covered with a plate seal and incubated for 1.5 hrs at room temperature.
The ELISA plate was washed and blotted dry as previously described. The Third Antibody (Cell Signaling HRP conjugated anti-rabbit IgG (CellSignaling, Cat #:7074) diluted to 1:300 in Blocking Buffer was added (100 μL) to each well, except as needed for background control wells. The plate was incubated for 1 hr at room temperature.
The plate was washed and blotted dry, then a previously prepared TMB substrate (TMB substrate kit, Pierce catalog #34021) (prepared by mixing kit reagents 1:1) (100 μL) was added per well. The plate was incubated for 20-30 minutes at room temperature in the dark, then Stop Solution (2 M sulfuric acid in water) (50 μL) was added per well. The plates were read at OD450 (experimental) and OD570 (reference).

[1] = Table 1, Bmi-1 sandwich ELISA, read-out: ELISA EC50 value for Bmi-1 protein
[2] = read-out: ELISA EC50 value for Bmi-1 protein, Table 1, Bmi-1 sandwich ELISA

EC50 [1] [nM]	SMILES	EC50 [2] [nM]
10 to 100	COc1ccc2nc(C(F)(F)F)c(-c3cncc(Nc4ccc(OC(F)(F)F)cc4)n3)n2c1 [Cpd 45, 6-[6-methoxy-2-(trifluoromethyl)imidazo[1,2-a]pyridin-3-yl]-N-[4-(trifluoromethoxy)phenyl]pyrazin-2-amine]	
10 to 100	COc1ccc2nc(C(F)(F)F)c(-c3cncc(Nc4ccc(C(F)(F)F)cc4)n3)n2c1 [Cpd 46, 6-[6-methoxy-2-(trifluoromethyl)imidazo[1,2-a]pyridin-3-yl]-N-[4-(trifluoromethyl)phenyl]pyrazin-2-amine]	
1 to 10	COc1ccc(Nc2cncc(-c3c(C(F)(F)F)nc4ccc(OC)cn34)n2)cc1 [Cpd 47, N-(4-methoxyphenyl)-6-[6-methoxy-2-(trifluoromethyl)imidazo[1,2-a]pyridin-3-yl]pyrazin-2-amine]	
1 to 10	COc1ccc2nc(C(F)(F)F)c(-c3cncc(Nc4ccc(OC(F)F)cc4)n3)n2c1 [Cpd 48, N-[4-(difluoromethoxy)phenyl]-6-[6-methoxy-2-(trifluoromethyl)imidazo[1,2-a]pyridin-3-yl]pyrazin-2-amine]	
100 to 3000	COc1ccc2nc(C(F)(F)F)c(-c3cncc(Nc4ccc(C#N)cc4)n3)n2c1 [Cpd 49, 4-({6-[6-methoxy-2-(trifluoromethyl)imidazo[1,2-a]pyridin-3-yl]pyrazin-2-yl}amino)benzonitrile]	
10 to 100	Fc1ccc2nc(C(F)(F)F)c(-c3cncc(Nc4ccc(OC(F)(F)F)cc4)n3)n2c1 [Cpd 55, 6-[6-fluoro-2-(trifluoromethyl)imidazo[1,2-a]pyridin-3-yl]-N-[4-(trifluoromethoxy)phenyl]pyrazin-2-amine]	
1 to 10	Fc1ccc2nc(C(F)(F)F)c(-c3cncc(Nc4ccc(OC(F)F)cc4)n3)n2c1 [Cpd 56, N-[4-(difluoromethoxy)phenyl]-6-[6-fluoro-2-(trifluoromethyl)imidazo[1,2-a]pyridin-3-yl]pyrazin-2-amine]	
< 1	COc1ccc(Nc2cncc(-c3c(C(F)(F)F)nc4ccc(F)cn34)n2)cc1 [Cpd 57, 6-[6-fluoro-2-(trifluoromethyl)imidazo[1,2-a]pyridin-3-yl]-N-(4-methoxyphenyl)pyrazin-2-amine]	
1 to 10	Fc1ccc2nc(C(F)(F)F)c(-c3cncc(Nc4ccc(C(F)(F)F)cc4)n3)n2c1 [Cpd 58, 6-[6-fluoro-2-(trifluoromethyl)imidazo[1,2-a]pyridin-3-yl]-N-[4-(trifluoromethyl)phenyl]pyrazin-2-amine]	
100 to 3000	O=[N+]([O-])c1ccc(Nc2cncc(-c3c(C(F)(F)F)nc4ccccn34)n2)cc1 [Cpd 59, N-(4-nitrophenyl)-6-[2-(trifluoromethyl)imidazo[1,2-a]pyridin-3-yl]pyrazin-2-amine]	
10 to 100	Nc1ccc(Nc2cncc(-c3c(C(F)(F)F)nc4ccccn34)n2)cc1 [Cpd 60, N-{6-[2-(trifluoromethyl)imidazo[1,2-a]pyridin-3-yl]pyrazin-2-yl}benzene-1,4-diamine]	
100 to 3000	FC(F)(F)Oc1ccc(Nc2cncc(-c3c(C(F)(F)F)nc4ncccn34)n2)cc1 [Cpd 100, N-[4-(trifluoromethoxy)phenyl]-6-[2-(trifluoromethyl)imidazo[1,2-a]pyrimidin-3-yl]pyrazin-2-amine]	
10 to 100	FC(F)Oc1ccc(Nc2cncc(-c3c(C(F)(F)F)nc4ncccn34)n2)cc1 [Cpd 109, N-[4-(difluoromethoxy)phenyl]-6-[2-(trifluoromethyl)imidazo[1,2-a]pyrimidin-3-yl]pyrazin-2-amine]	

More lines, now with the values behind:

SMILES	EC50 [1] [nM]	EC50 [2] [nM]
N#Cc1ccc(Nc2cccc(-c3c(C(F)(F)F)nc4ccccn34)n2)cc1 [Cpd 50, 4-({6-[2-(trifluoromethyl)imidazo[1,2-a]pyridin-3-yl]pyridin-2-yl}amino)benzonitrile]	10 to 100	
FC(F)(F)c1ccc(Nc2cccc(-c3c(C(F)(F)F)nc4ncccn34)n2)cc1 [Cpd 64, 6-[2-(trifluoromethyl)imidazo[1,2-a]pyrimidin-3-yl]-N-[4-(trifluoromethyl)phenyl]pyridin-2-amine]		10 to 100
FC(F)(F)c1ccc(Nc2cncc(-c3c(C(F)(F)F)nc4ncccn34)n2)cc1 [Cpd 67, 6-[2-(trifluoromethyl)imidazo[1,2-a]pyrimidin-3-yl]-N-[4-(trifluoromethyl)phenyl]pyrazin-2-amine]		10 to 100
FC(F)(F)c1ccc(Nc2cncc(-c3c(C(F)(F)F)nc4ccccn34)n2)cn1 [Cpd 70, 6-[2-(trifluoromethyl)imidazo[1,2-a]pyridin-3-yl]-N-[6-(trifluoromethyl)pyridin-3-yl]pyrazin-2-amine]	10 to 100	
FC(F)(F)c1ccc(Nc2cccc(-c3c(C(F)(F)F)nc4ccccn34)n2)cn1 [Cpd 71, 6-[2-(trifluoromethyl)imidazo[1,2-a]pyridin-3-yl]-N-[6-(trifluoromethyl)pyridin-3-yl]pyridin-2-amine]	1 to 10	
COc1cc(Nc2ccc(C(F)(F)F)cc2)nc(-c2c(C(F)(F)F)nc3ccccn23)c1 [Cpd 107, 4-methoxy-6-[2-(trifluoromethyl)imidazo[1,2-a]pyridin-3-yl]-N-[4-(trifluoromethyl)phenyl]pyridin-2-amine]	100 to 3000	
COc1cc(Nc2ccc(C(F)(F)F)cc2)nc(-c2c(C(=O)O)nc3ccccn23)c1 [Cpd 124, 3-(4-methoxy-6-{[4-(trifluoromethyl)phenyl]amino}pyridin-2-yl)imidazo[1,2-a]pyridine-2-carboxylic acid]	10 to 100	
COc1cc(Nc2ccc(OC(F)F)cc2)nc(-c2c(C(F)(F)F)nc3ccccn23)c1 [Cpd 125, N-[4-(difluoromethoxy)phenyl]-4-methoxy-6-[2-(trifluoromethyl)imidazo[1,2-a]pyridin-3-yl]pyridin-2-amine]	100 to 3000	
Cc1nc2ccccc2n1-c1cc(C#N)cc(Nc2ccc(C(F)(F)F)cc2)n1 [Cpd 132, 2-(2-methyl-1H-benzimidazol-1-yl)-6-{[4-(trifluoromethyl)phenyl]amino}pyridine-4-carbonitrile]		10 to 100
Cc1nc2ccccc2n1-c1cc(C#N)cc(Nc2ccc(OC(F)F)cc2)n1 [Cpd 135, 2-{[4-(difluoromethoxy)phenyl]amino}-6-(2-methyl-1H-benzimidazol-1-yl)pyridine-4-carbonitrile]	10 to 100	
Cc1nc2ccccc2n1-c1cc(C#N)cc(Nc2ccc(OC(F)(F)F)cc2)n1 [Cpd 136, 2-(2-methyl-1H-benzimidazol-1-yl)-6-{[4-(trifluoromethoxy)phenyl]amino}pyridine-4-carbonitrile]	10 to 100	
NC(=O)c1cc(Nc2ccc(C(F)(F)F)cc2)nc(-c2c(C(F)(F)F)nc3ccccn23)c1 [Cpd 189, 2-[2-(trifluoromethyl)imidazo[1,2-a]pyridin-3-yl]-6-{[4-(trifluoromethyl)phenyl]amino}pyridine-4-carboxamide]		10 to 100
FC(F)(F)c1ccc(Nc2cncc(-c3c(C(F)(F)F)nc4ccccn34)n2)nc1 [Cpd 190, 6-[2-(trifluoromethyl)imidazo[1,2-a]pyridin-3-yl]-N-[5-(trifluoromethyl)pyridin-2-yl]pyrazin-2-amine]	10 to 100	
COc1ncc(Nc2cncc(-c3c(C(F)(F)F)nc4ccccn34)n2)cn1 [Cpd 201, 2-methoxy-N-{6-[2-(trifluoromethyl)imidazo[1,2-a]pyridin-3-yl]pyrazin-2-yl}pyrimidin-5-amine]	1 to 10	
Cc1nc2ccccc2n1-c1cc(C(N)=O)cc(Nc2ccc(C(F)(F)F)cc2)n1 [Cpd 203, 2-(2-methyl-1H-benzimidazol-1-yl)-6-{[4-(trifluoromethyl)phenyl]amino}pyridine-4-carboxamide]		100 to 3000
Fc1cc(Nc2cncc(-c3c(C(F)(F)F)nc4ccccn34)n2)ccc1C(F)(F)F [Cpd 208, N-[3-fluoro-4-(trifluoromethyl)phenyl]-6-[2-(trifluoromethyl)imidazo[1,2-a]pyridin-3-yl]pyrazin-2-amine]	10 to 100	
